Experimental findings from a melting point compilation (Tetko et al.; mined from patent text by program, amines drawn as free bases though some values may be those of a salt) are described below.

Structures are written as SMILES.

On to `CCOC(=O)COc1cccc2cc(S(N)(=O)=O)sc12`, for which the melting point (in general, the temperature of the solid-liquid transition) was 168 °C. As for `Clc1ccc(I)cc1CBr`, the melting point lay in the range of 94 to 95 °C.

With `CNc1cc(-c2ccc(Cl)cc2)nn1C`, the melting point was found to be 112 °C. In turn, `CCNCC1(C)CN(c2c(F)cc3c(=O)c(C(=O)O)cn4c3c2OC[C@H]4C)C1` returned a melting point of 242 to 245 °C. The compound `CCOc1nn(-c2ccc(C(F)(F)F)cn2)cc1CCCOc1cccc(CC(=O)O)c1F` registered a melting point of 120 to 121 °C. The result for `CC1(C)Cc2c(c(N3CCCC3)nc3sc4c(NCc5ccccn5)ncnc4c23)CO1` reads 249 to 251 °C; that for `O=C(c1ccccc1)c1ccc2nc(-c3c[nH]c(C(=O)N4CCCC4)c3)[nH]c2c1`, 160 to 162 °C. The compound `C=CCOc1ccc(C(=O)CC(C#N)c2ccc(OC)cc2OC)cc1` (stereo unspecified) showed a melting point of 112 to 113 °C. Under `COc1ccc(C(=O)Nc2nc3ccc(N)cc3c(NCc3cccs3)c2C#N)cc1` stands 200 to 203 °C; under `CCc1scc(C(=O)OC)c1NC(=O)C(F)(F)F`, 55 to 56 °C.

Turning to `COc1cc(-c2cc(C(F)(F)F)nn2-c2ccc(S(C)(=O)=O)cc2)ccc1-c1cocn1`, the melting point is 171 to 173 °C. In turn, `CN(c1cccc2cc(C3=NCC(CC(N)=O)S3)[nH]c12)S(=O)(=O)c1cccnc1` (stereo unspecified) showed a melting point of 185 to 186 °C. Under `O=S(=O)(c1ccccc1)c1c[nH]c2ccc(CCN3CCN(Cc4ccccc4)CC3)cc12` stands 150 to 153 °C. The result for `Cc1cc(=O)c(Oc2ccc(F)cc2C)c(-c2ccc(S(C)(=O)=O)cc2)o1` reads 146 °C.

`Cc1cc(=O)n(-c2cc3c(cc2F)OC(CC#N)C(=O)N3)c(=O)[nH]1` (stereo unspecified): the melting point is over 230 °C. The result for `CS(=O)(=O)c1cc(Br)ccc1CN1C(=O)c2ccccc2C1=O` reads 188 to 190 °C.

As for `CCCOc1cc(C(=O)O)cc([N+](=O)[O-])c1-c1ccccc1`, the melting point was 142 to 144 °C. The result for `Nc1nc(CCCc2ccccc2)nc2nc(-c3ccco3)nn12` reads 164 to 167 °C. In turn, `CCCCc1nc2cc(-c3ccccc3)cc(C(=O)OC)c2n1Cc1ccccc1Cl` showed a melting point of 103 to 105 °C. As for `CC(C)(C)OC(=O)CN1CC(c2cccs2)SCC(N2C(=O)c3ccccc3C2=O)C1=O` (stereo unspecified), the melting point lay within 151 to 152 °C. The result for `O=C(c1ccc(F)cc1)c1nc[nH]n1` reads 225 to 230 °C; that for `Cc1nc(NC(=O)C(c2ccccc2)c2ccccc2)no1`, 153 °C; that for `COC(=O)c1cccc(C(=O)NC(Nc2c(Nc3cccnc3)c(=O)c2=O)C(C)(C)C)c1` (stereo unspecified), 228 to 229 °C. Consider `CCOC(=O)[C@@H](O)[C@@H](NC(=O)c1ccccc1)c1ccccc1`, for which the melting point was in the range of 160 to 161 °C. The compound `COc1ccc2c(c1)Sc1c(cc(OC)c(OC(=O)c3ccccc3)c1Br)N2` gave a melting point of 202 to 203 °C. The result for `Cn1cc(C(=O)NCc2ccc(Cl)cc2)c(=O)c2cc(CN3CCOc4ccccc43)ccc21` reads 193 to 194 °C; that for `N#CC(C(=O)Nc1cccc(C(F)(F)F)c1)C(=O)c1ccc[nH]1` (stereo unspecified), 210 to 212 °C; that for `Cc1ccc(C(C)(O)P(O)O)cc1` (stereo unspecified), 115 °C.

`CCC(O)c1ccc(-c2cccc(COc3ccc(CO)c(CO)c3)c2)c(C)c1` (stereo unspecified) yielded a melting point of 78 °C. Under `COC(=O)N1CCc2cc(S(=O)(=O)Cl)ccc21` stands 113 to 114 °C; under `COC(=O)C(OC)c1ccc2nc(-c3ccc(Cl)cc3)oc2c1` (stereo unspecified), 131 to 132 °C. The result for `CCOC(=O)c1cnc2c(c1O)CCCCCCCCCC2` reads 182 to 190 °C; that for `NC(=O)CCNC(=O)C1CCCN1C(=O)OCc1ccccc1` (stereo unspecified), 151 to 152 °C. The result for `COc1nc2ncnc(NCC=C(C)C)c2[nH]1` reads 205 to 210 °C. `Clc1ccc(OC2CC3CCC(C2)N3Cc2nccs2)cc1Cl` (stereo unspecified) displayed a melting point of 123 to 124 °C. `Cc1noc(NS(=O)(=O)c2ccccc2-c2ccccn2)c1C` came in with a melting point of 136 to 137 °C. The result for `COC(=O)c1cccc(-c2ccncn2)c1` reads 69 to 71 °C; that for `O=C(c1ccccc1)c1ccc2nc(CS(=O)c3ccccn3)[nH]c2c1` (stereo unspecified), 142 to 145 °C; that for `CC(C)C(=O)N=c1ccn(-c2ccccc2)nc1`, 138 °C.

`CC(C)(C)C1Cc2cc([N+](=O)[O-])ccc2N1` (stereo unspecified) registered a melting point of 110 to 112 °C. The result for `Cc1c(-c2ccc(O)cc2)n(Cc2ccc(OCCN3C(C)CCCC3C)cc2)c2ccc(O)cc12` (stereo unspecified) reads 114 to 121 °C; that for `Cc1ccc(Sc2c(N)cc(C(=O)O)cc2SCc2ccccc2)cc1`, 177 to 179 °C. The compound `NNC(=O)[C@@H]1C[C@]2(NC(=O)NC2=O)c2cc(F)ccc2O1` returned a melting point of 277 to 278 °C. In turn, `O=C1Nc2ccc(F)cc2C1c1ncnc2nn(C3CCCC3)cc12` (stereo unspecified) came in with a melting point of 256 to 260 °C. In turn, `COc1ccc2nc(NC(=O)C(CC3CCCC3)c3ccc(S(=O)(=O)N(C)C)cc3)sc2n1` (stereo unspecified) showed a melting point of 229 to 234 °C. Under `COc1cccc([C@H](O)C[C@@H]2CCCN2C)c1` (relative stereo) stands 79 to 82 °C; under `CCCCCC(O)c1cccc(OCc2cccc(C(N)=O)c2)c1` (stereo unspecified), 97 to 98 °C. The result for `CC(=O)SCCC(=O)N1NC(=O)CC1C(=O)O` (stereo unspecified) reads 205 to 207 °C; that for `CN1CCC(=C2c3ccc(Cl)cc3C(=O)Cc3cccnc32)CC1`, 181 to 183 °C. In the case of `CCCc1c(OCCCCC(=O)O)ccc(C(C)=O)c1O`, the melting point lay in the range of 97 to 102 °C. The result for `CNC(=O)c1cccc(Br)c1` reads 126 °C. As for `CNC1=Nc2ccc(Br)cc2C(c2ccccc2)=NC1`, the melting point is 234 to 235 °C.

As to `COCCCS(=O)(=O)NC(=O)/C=C/c1ccc(OC(C)C)cc1Oc1ncc(C(F)(F)F)cc1Cl`, the melting point came out at 130 °C. The result for `NC(=O)CCC(=O)NCCS` reads 173 °C; that for `O=c1c2ccccc2sc2cc(OCC(O)CCl)cc(O)c12` (stereo unspecified), 151 °C. With `C(=C1CSCC2=C1N=C1SCCN1C2c1ccccc1)c1ccccc1` (stereo unspecified), the melting point lay in the range of 195 to 196 °C. Under `C[C@H](NC(=O)Cc1ccccc1F)C(=O)N[C@@H]1C(=O)Nc2ccccc2O[C@@H]1c1ccccc1` stands 115 to 135 °C; under `N#Cc1nn(-c2c(Cl)cc(C(F)(F)F)cc2Cl)cc1C1(C(F)(F)C(F)(F)F)CC1`, 105 to 106 °C; under `CC(C)(Sc1cc(C(C)(C)C)c(O)c(C(C)(C)C)c1)Sc1cc(C(C)(C)C)c(OCC[C@H](O)CO)c(C(C)(C)C)c1`, 110 to 112 °C. Regarding `CN1C(=O)c2cccnc2N(CC(=O)OC(C)(C)C)c2ccccc21`, the melting point was in the range of 64 to 65 °C.

As for `CCCN1C(=O)C2(c3ccccc3)CC(c3ccc(N)cc3)(C2)C1=O`, the melting point fell in the range of 144 to 145 °C.

The compound `CC1COC2(CCN(C(=O)C(Cl)Cl)CC2)O1` (stereo unspecified) gave a melting point of 115 °C.

Take `CC(=O)NC(C)(C)c1ccc(CCl)cc1`: the melting point is 101 to 103 °C. The result for `O=c1c2c(Cc3ccccc3O)n[nH]c2c2cccnc2n1-c1ccccc1` reads 278 to 280 °C; that for `COc1cc(C)nc(NC(=O)NS(=O)(=O)c2ccsc2S(C)(=O)=O)n1`, 204 to 206 °C; that for `C[C@@H](n1cnc2cc(-c3ccc(Cl)cc3)sc2c1=O)[C@](O)(Cn1cncn1)c1ccc(Cl)cc1Cl`, 132 to 136 °C. Under `O=C(NCCCCO)c1ccc2c(c1)OCO2` stands 95 to 98 °C. The result for `Cc1cc(OCCCCCl)cc(-c2ccc(F)cc2)n1` reads 59 to 61 °C; that for `CC(C)C1(C)N=C(c2nc(O)ccc2C(=O)O)NC1=O` (stereo unspecified), 201 to 203 °C; that for `CCCCCCCCCCc1sc2c(sc3c2sc2c4sccc4sc23)c1CCCCCCCCCC`, 50.9 to 52.5 °C. Consider `COCCOc1cc(N)c(Cl)cc1C(=O)OC`, for which the melting point is 121 to 122 °C. The result for `O=C(Nc1c[nH]nc1C(=O)NCCSc1ccccc1)c1ccccn1` reads 180 to 181 °C; that for `COc1cc2c(cc1OC)C(=O)C(C(=O)C(F)(F)F)CS2` (stereo unspecified), 148 to 151 °C; that for `COC(=O)CCC(=O)c1ccc(-c2ccc(Cl)s2)cc1`, 117 to 118 °C.

Turning to `Cc1cc(CCCCCOc2c(C)cc(-c3noc(C)n3)cc2C)on1`, the melting point is 45 to 46 °C.

In turn, `COC(=O)c1ccc(OCC(C)NCC(O)c2cccc(Cl)c2)c(C(=O)OC)c1` (stereo unspecified) gave a melting point of 112 °C. The compound `CCCC=Cc1c(C(C)C)cc(C(C)C)c(CO)c1-c1ccc(F)cc1` came in with a melting point of 85 to 95 °C. For `CC(C)(C)c1ccc(-c2ccc3c(-c4ccc(C(C)(C)C)cc4)cc4c5cc(-c6ccc(C(C)(C)C)cc6)ccc5c(-c5ccc(C(C)(C)C)cc5)cc4c3c2)cc1`, the melting point was determined as 376 °C. Compound `O=C(CCc1ccc(F)cc1)Cn1ccnc1` registered a melting point of 69 to 70 °C. The result for `C=CCN1CCC[C@H]1C(N)=O` reads 79 to 81 °C; that for `Cc1c(SCc2ccc(C(C)(C)C)cc2)cnn(C(C)(C)C)c1=O`, 91 to 92 °C; that for `O=C1N(c2cc(Cl)cc(Cl)c2)C(=O)C2(Cc3ccc(Br)cc3)CNCCN12` (stereo unspecified), 92.5 °C.

Compound `O=S(=O)(Oc1cc(I)c(I)cc1OS(=O)(=O)C(F)(F)F)C(F)(F)F` returned a melting point of 46.5 to 47.7 °C. The result for `CN1CC[C@@H](c2cc(Cl)ccc2O)[C@@H]1c1ccccc1I` (relative stereo) reads 123 °C; that for `Cc1cc(S(C)(=O)=O)c(S(C)(=O)=O)cc1C(=O)O`, 234 to 235 °C. In turn, `CCS(=O)(=O)ON=C(C#N)c1ccc(OC)cc1` had a melting point of 102 °C.

`COC(=O)c1nc(-c2ccc(C)c(C)c2)cc(N)c1Cl` displayed a melting point of 154 to 156 °C. For the compound `CC1C(=O)CCS1(=O)=O` (stereo unspecified), the melting point was in the range of 83 to 85 °C. The result for `CCCCCCCCCc1ccc(S(N)(=O)=O)cc1` reads 94.5 to 95.2 °C; that for `Nc1c(OCC(O)CN2CCC(COc3ccccc3)CC2)cccc1[N+](=O)[O-]` (stereo unspecified), 117 to 118 °C; that for `O=CC(Cc1ccccc1)N1C(=O)c2ccccc2C1=O` (stereo unspecified), 115 to 117 °C.
